The source of these data is US20050187244A1 (Entire Interest., priority 2004, published 2005).

Data set [1] can be described thus: Solid form transformation on drying. Format: physicochemical. As to conditions: drying under heating, preferably 50 C. overnight under vacuum, about 10-100 mm Hg; monosodium salt. The method, then:
The various forms are related in that drying of one form may lead to another form. Drying may be carried out under ambient or reduced pressure under heating. The temperature during heating is preferably about 40° C. to about 60° C., more preferably about 40° C. to about 50° C. The drying for a few days, such as about two days may be sufficient for transformation. In a preferred embodiment, drying is performed at 50C. overnight under vacuum, about 10-100 mm Hg.
Some solutions were stirred at room temperature; others were heated to the indicated temperature. The precipitate was recovered by filtration and washed with the solvent (5 mL) to obtain a wet sample. A portion of the wet sample was dried overnight in a vacuum at 50° C. at 10-50 mm Hg to obtain a dry sample. The wet and dry samples were analyzed by X-ray diffraction.

The nature of data set [2]: Solid form transformation while stirred in organic solvent (slurry). It counts as physicochemical. As to conditions: stirred in an organic solvent for more than about 2 days, e.g. dichloromethane and optionally heptane. The source says:
The various forms are related in that one form may transform to another while in an organic solvent, such as a slurry resulting from crystallization. […] Such transformation occurs for example in a reaction mixture containing dichloromethane and optionally a C5 to C12 hydrocarbon such as heptane.

The conditions of data set [3]: powder; cited from earlier work.

On to `CC(C)(O)c1ccccc1CC[C@@H](SCC1(CC(=O)[O-])CC1)c1cccc(/C=C/c2ccc3ccc(Cl)cc3n2)c1.[Na+]` [Form B1, [R-(E)]-1-[[[1-[3-[2-(7-chloro-2-quinolinyl)ethenyl]phenyl]-3-[2-(1-hydroxy-1-methylethyl)phenyl]propyl]thio]methyl]cyclopropaneacetic acid, monosodium salt], for which, in data set [1], the “form obtained on drying” value was “Form C”. In addition, in data set [2], the “form transformation in organic solvent” value is listed as “transforms to Form C”.
For the compound `CC(C)(O)c1ccccc1CC[C@@H](SCC1(CC(=O)[O-])CC1)c1cccc(/C=C/c2ccc3ccc(Cl)cc3n2)c1.[Na+]` [Form B2, [R-(E)]-1-[[[1-[3-[2-(7-chloro-2-quinolinyl)ethenyl]phenyl]-3-[2-(1-hydroxy-1-methylethyl)phenyl]propyl]thio]methyl]cyclopropaneacetic acid, monosodium salt], in data set [1], the “form obtained on drying” value was “Form B1 or form C”.
As for `CC(C)(O)c1ccccc1CC[C@@H](SCC1(CC(=O)[O-])CC1)c1cccc(/C=C/c2ccc3ccc(Cl)cc3n2)c1.[Na+]` [Montelukast sodium, [R-(E)]-1-[[[1-[3-[2-(7-chloro-2-quinolinyl)ethenyl]phenyl]-3-[2-(1-hydroxy-1-methylethyl)phenyl]propyl]thio]methyl]cyclopropaneacetic acid, monosodium salt], in data set [3], the hygroscopicity entry is listed as “hygroscopic”.
